Test results published in patent publication US20040002080A1, “Primers for use in detecting beta-lactamases” (priority 2001, published 2004).
Values after ≈ are worked out from the molar mass of the structure shown. Read-outs that look alike come from different tables or passages of the source.

Key:
[1] = system: S. enterica serotype typhimurium isolate; assay: Antibiotic susceptibility testing (microdilution MIC, VITEK, NCCLS disk diffusion); format: cell-based, Salmonella enterica serotype Typhimurium
[2] = system: K. pneumoniae strain 249; assay: Overnight microdilution susceptibility test (MicroScan panels, NCCLS criteria); format: cell-based; details: Klebsiella pneumoniae, K. pneumoniae 249, combinations as drug/clavulanate, read-out: Minimum Inhibitory Concentrations (MICs)
Method: Susceptibility tests were performed on K. pneumoniae 249 by an overnight microdilution method with investigational dehydrated panels provided by Dade Behring MicroScan (Sacramento, Calif.) according to the manufacturer's recommendations and interpreted according to National Committee for Clinical Laboratory Standards (NCCLS) criteria and by NCCLS disc diffusion (National Committee for Clinical Laboratory Standards (NCCLS), “Methods for Dilution Antimicrobial Susceptibility Tests for Bacteria that Grow Aerobically: Approved Standard M7-A4,” Villanova, Pa. (1997); and Hanson et al., J. Antimicrob. Chemother., 44(3):377-380 (September 1999)). The test was performed using an innoculum of approximately 5×10^5 colony forming units per square milliliter (cfu/mL^2). Isoelectric focusing (IEF), cefotaxime hydrolysis and inhibitor determinations in polyacrylamide gels were performed using sonic extracts of K. pneumoniae 249 (Thomson et al., Antimicrob. Agents Chemother., 35:1001-1003 (1991)).

[3] = system: S. enterica serotype typhimurium isolate; assay: Phenotypic inhibitor-based ESBL tests (double disk potentiation with clavulanate); format: cell-based, Salmonella enterica serotype Typhimurium; details: for potentiation by clavulanate (ESBL tests positive): with clavulanate
Text: Susceptibility testing and β-lactamase investigations. Antibiotic susceptibilities and resistance phenotypes were investigated by microdilution MIC methodology, double disk potentiation, VITEK (card GNS-424, bioMérieux, Inc. St. Louis, Mo.), NCCLS disk diffusion, and the three dimensional test (Thomson et al., Antimicrob. Agents Chemother., 35(5):1001-1003 (May 1991); and Thomson et al., Antimicrob. Agents Chemother., 36(9):1877-1882 (September 1992)).

[4] = biological target: T1, beta-lactamase band of isoelectric point 9.1 (AmpC enzyme) of K. pneumoniae 249 (Klebsiella pneumoniae, UniProt Q48434); assay: Isoelectric focusing, cefotaxime hydrolysis and inhibitor determinations in polyacrylamide gels, sonic extracts; format: biochemical; details: sonic extracts of K. pneumoniae 249, polyacrylamide gel; for inhibition of the band of isoelectric point 9.1: inhibitor 1000 mM
T1 construct: performed using sonic extracts of K. pneumoniae 249; endogenous in cells; host or cells: Klebsiella pneumoniae strain 249 (clinical urine isolate), sonic extract
Method: The test was performed using an innoculum of approximately 5×10^5 colony forming units per square milliliter (cfu/mL^2).
The cefoxitin, ceftriaxone/clavulanate and ceftazidime/clavulanate MICs indicated two possible mechanisms of resistance, the expression of a plasmid-mediated ampC gene and/or a porin mutation. […] Three beta-lactamases were identified with isoelectric points of 5.4, 7.6, and 9.1. The band that focused at isoelectric point 9.1 hydrolyzed cefotaxime and was inhibited by cloxacillin (1000 mM), but not clavulanate (1000 mM). These findings indicated it was an AmpC enzyme.

[5] = system: beta-lactamase pI 8.2 (SHV-9); assay: Isoelectric focusing with general inhibitor characteristics, crude beta-lactamase preparations; format: biochemical, Salmonella enterica serotype Typhimurium; details: crude preparation
Method: (§1) Crude beta-lactamase preparations derived from sonicated bacterial cultures of the S. typhimurium isolate and strains producing reference beta-lactamases were assessed for beta-lactamase pls and general inhibitor characteristics by isoelectric focusing (Thomson et al., Antimicrob. Agents Chemother., 35(5):1001-1003 (May 1991).

[6] = system: beta-lactamase pI>9.0 (AmpC); assay: as above; format: biochemical, Salmonella enterica serotype Typhimurium; details: crude preparation
Method: as §1

[7] = biological target: T2, beta-lactamase pI 7.4 (OXA-1 or OXA-30) (Escherichia coli, UniProt P13661); format: biochemical, Salmonella enterica serotype Typhimurium; details: isoelectric focusing, crude preparation
T2 construct: Crude beta-lactamase preparations derived from sonicated bacterial cultures of the S. typhimurium isolate; endogenous in cells; host or cells: Salmonella enterica serotype Typhimurium clinical stool isolate, sonicated culture
T2 sequence (P13661 26-276): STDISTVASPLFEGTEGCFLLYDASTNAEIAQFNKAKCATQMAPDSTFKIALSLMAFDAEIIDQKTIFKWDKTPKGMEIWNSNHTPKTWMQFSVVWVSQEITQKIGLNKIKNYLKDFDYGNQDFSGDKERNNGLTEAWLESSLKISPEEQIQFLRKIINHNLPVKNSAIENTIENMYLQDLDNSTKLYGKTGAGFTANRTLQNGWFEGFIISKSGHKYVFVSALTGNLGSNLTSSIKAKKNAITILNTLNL

T1 sequence (Q48434 21-381): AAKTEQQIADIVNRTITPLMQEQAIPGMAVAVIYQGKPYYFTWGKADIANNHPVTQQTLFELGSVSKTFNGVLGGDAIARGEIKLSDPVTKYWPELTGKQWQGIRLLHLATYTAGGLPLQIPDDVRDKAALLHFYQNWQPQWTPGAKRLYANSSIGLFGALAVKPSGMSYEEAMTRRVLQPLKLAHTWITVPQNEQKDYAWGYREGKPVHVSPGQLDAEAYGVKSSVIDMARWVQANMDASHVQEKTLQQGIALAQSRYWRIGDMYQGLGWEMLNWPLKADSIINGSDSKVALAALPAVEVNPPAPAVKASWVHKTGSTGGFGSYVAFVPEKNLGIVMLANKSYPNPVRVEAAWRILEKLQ

| Molecule | MIC ([1]; Table 2) | MIC [2] [µg/mL] | susceptibility category (susceptible / intermediate / resistant) [1] | also measured |
| --- | --- | --- | --- | --- |
| NCC[C@H](O)C(=O)N[C@@H]1C[C@H](N)[C@@H](O[C@H]2O[C@H](CN)[C@@H](O)[C@H](O)[C@H]2O)[C@H](O)[C@H]1O[C@H]1O[C@H](CO)[C@@H](O)[C@H](N)[C@H]1O [Amikacin] | > 64 µg/mL | – | – | – |
| CC1(C)S[C@@H]2[C@H](NC(=O)[C@H](N)c3ccccc3)C(=O)N2[C@H]1C(=O)O [Ampicillin] | > 256 µg/mL | > 16 | – | – |
| C=CC1=C(C(=O)O)N2C(=O)[C@@H](NC(=O)/C(=N\OCC(=O)O)c3csc(N)n3)[C@H]2SC1 [Cefixime] | > 128 µg/mL | – | – | – |
| CC=CC1=C(C(=O)O)N2C(=O)[C@@H](NC(=O)[C@H](N)c3ccc(O)cc3)[C@H]2SC1 [Cefprozil] | > 128 µg/mL | – | – | – |
| CC(C)(O/N=C(\C(=O)N[C@@H]1C(=O)N2C(C(=O)[O-])=C(C[n+]3ccccc3)CS[C@H]12)c1csc(N)n1)C(=O)O [Ceftazidime] | > 32 µg/mL | 16 | resistance | – |
| CO/N=C(\C(=O)N[C@@H]1C(=O)N2C(C(=O)O)=C(CSc3nc(=O)c(=O)[nH]n3C)CS[C@H]12)c1csc(N)n1 [Ceftriaxone] | > 128 µg/mL | 16 | – | – |
| CO/N=C(\C(=O)N[C@@H]1C(=O)N2C(C(=O)O)=C(COC(N)=O)CS[C@H]12)c1ccco1 [Cefuroxime] | > 256 µg/mL | – | – | – |
| CC(=O)OCC1=C(C(=O)O)N2C(=O)[C@@H](NC(=O)Cc3cccs3)[C@H]2SC1 [Cephalothin] | > 32 µg/mL | > 16 | – | – |
| O=C(N[C@H](CO)[C@H](O)c1ccc([N+](=O)[O-])cc1)C(Cl)Cl [Chloramphenicol] | > 256 µg/mL | – | resistant | – |
| O=C(O)c1cn(C2CC2)c2cc(N3CCNCC3)c(F)cc2c1=O [Ciprofloxacin] | – | – | susceptible | – |
| C[C@@H](O)[C@H]1C(=O)N2C(C(=O)O)=C([C@H]3CCCO3)S[C@H]12 [Faropenem] | 2 µg/mL (≈ 7.01 µM) | – | – | MIC ([1]; Salmonella enterica, read-out: MIC): 2 µg/mL (≈ 7.01 µM) |
| C[C@@H](O)[C@H]1C(=O)N2C(C(=O)O)=C(SCCN=CN)C[C@H]12 [Imipenem] | 0.25 µg/mL (≈ 0.835 µM) | – | – | – |
| C[C@H]1COc2c(N3CCN(C)CC3)c(F)cc3c(=O)c(C(=O)O)cn1c23 [Levofloxacin] | 0.5 µg/mL (≈ 1.38 µM) | – | – | – |
| C[C@@H](O)[C@H]1C(=O)N2C(C(=O)O)=C(S[C@@H]3CN[C@H](C(=O)N(C)C)C3)[C@H](C)[C@H]12 [Meropenem] | less than 2 | ≤ 0.5 | susceptible | – |
| NC[C@H]1O[C@H](O[C@H]2[C@H](O)[C@@H](O[C@H]3O[C@H](CO)[C@@H](O)[C@H](N)[C@H]3O)[C@H](N)C[C@@H]2N)[C@H](N)C[C@@H]1O [Tobramycin] | > 16 µg/mL | – | – | – |
| C[C@H]1[C@H](NC(=O)/C(=N\OC(C)(C)C(=O)O)c2csc(N)n2)C(=O)N1S(=O)(=O)O [aztreonam] | – | – | resistance | reversal of resistance by the addition of clavulanate ([3]; addition of clavulanate): partially reversible; potentiation by clavulanate (ESBL tests positive) [3]: potentiation |
| CO/N=C(\C(=O)N[C@@H]1C(=O)N2C(C(=O)[O-])=C(C[N+]3(C)CCCC3)CS[C@H]12)c1csc(N)n1 [cefepime] | – | ≤ 4 | intermediate | potentiation by clavulanate (ESBL tests positive) [3]: potentiation |
| CO/N=C(\C(=O)N[C@@H]1C(=O)N2C(C(=O)O)=C(COC(C)=O)CS[C@H]12)c1csc(N)n1 [cefotaxime] | – | – | resistance | cefotaxime hydrolysis by the band of isoelectric point 9.1 [4]: hydrolyzed |
| CO[C@@]1(NC(=O)Cc2cccs2)C(=O)N2C(C(=O)O)=C(COC(N)=O)CS[C@@H]21 [cefoxitin] | – | > 32 | resistance | – |
| CO/N=C(\C(=O)N[C@@H]1C(=O)N2C(C(=O)[O-])=C(C[n+]3cccc4c3CCC4)CS[C@H]12)c1csc(N)n1 [cefpirome] | – | – | – | potentiation by clavulanate (ESBL tests positive) [3]: potentiation |
| COCC1=C(C(=O)O)N2C(=O)[C@@H](NC(=O)/C(=N\OC)c3csc(N)n3)[C@H]2SC1 [cefpodoxime] | – | > 4 | – | – |
| O=C(O)[C@H]1/C(=C/CO)O[C@@H]2CC(=O)N21 [clavulanate] | – | – | – | inhibition of beta-lactamase pI 8.2 [5]: inhibited; inhibition of beta-lactamase pI>9.0 [6]: not; inhibition of beta-lactamase pI 7.4 [7]: inhibited; inhibition of the band of isoelectric point 9.1 [4]: not |
| Cc1onc(-c2ccccc2Cl)c1C(=O)N[C@@H]1C(=O)N2[C@@H]1SC(C)(C)[C@@H]2C(=O)O [cloxacillin] | – | – | – | inhibition of beta-lactamase pI>9.0 [6]: inhibited; inhibition of beta-lactamase pI 7.4 [7]: not; inhibition of the band of isoelectric point 9.1 [4]: inhibited |
| CCN1CCN(C(=O)N[C@@H](C(=O)N[C@@H]2C(=O)N3[C@@H]2SC(C)(C)[C@@H]3C(=O)O)c2ccccc2)C(=O)C1=O [piperacillin] | – | > 64 | – | – |
| CC1(C)S[C@@H]2[C@H](NC(=O)[C@H](C(=O)O)c3ccsc3)C(=O)N2[C@H]1C(=O)O [ticarcillin] | – | > 64 | – | – |
| Cotrimoxazole | > 320 µg/mL | – | resistant | – |
| Gentamicin | > 16 µg/mL | – | – | – |
